In BindingDB's records for doi:10.1124/jpet.105.089839 (F. Hoffmann-La Roche, 2005):
Several values for one entry are separate records, joined by “and”; a condition that tells them apart may be missing. Equal values may be shown once.

Tests used:
[1] = biological target: Metabotropic glutamate receptor 5 (Homo sapiens, UniProt P41594)
[2] = biological target: Metabotropic glutamate receptor 5 (Rattus norvegicus, UniProt P31424)
Chain of Metabotropic glutamate receptor 5 (Rattus norvegicus, UniProt P31424) (P31424 whole entry): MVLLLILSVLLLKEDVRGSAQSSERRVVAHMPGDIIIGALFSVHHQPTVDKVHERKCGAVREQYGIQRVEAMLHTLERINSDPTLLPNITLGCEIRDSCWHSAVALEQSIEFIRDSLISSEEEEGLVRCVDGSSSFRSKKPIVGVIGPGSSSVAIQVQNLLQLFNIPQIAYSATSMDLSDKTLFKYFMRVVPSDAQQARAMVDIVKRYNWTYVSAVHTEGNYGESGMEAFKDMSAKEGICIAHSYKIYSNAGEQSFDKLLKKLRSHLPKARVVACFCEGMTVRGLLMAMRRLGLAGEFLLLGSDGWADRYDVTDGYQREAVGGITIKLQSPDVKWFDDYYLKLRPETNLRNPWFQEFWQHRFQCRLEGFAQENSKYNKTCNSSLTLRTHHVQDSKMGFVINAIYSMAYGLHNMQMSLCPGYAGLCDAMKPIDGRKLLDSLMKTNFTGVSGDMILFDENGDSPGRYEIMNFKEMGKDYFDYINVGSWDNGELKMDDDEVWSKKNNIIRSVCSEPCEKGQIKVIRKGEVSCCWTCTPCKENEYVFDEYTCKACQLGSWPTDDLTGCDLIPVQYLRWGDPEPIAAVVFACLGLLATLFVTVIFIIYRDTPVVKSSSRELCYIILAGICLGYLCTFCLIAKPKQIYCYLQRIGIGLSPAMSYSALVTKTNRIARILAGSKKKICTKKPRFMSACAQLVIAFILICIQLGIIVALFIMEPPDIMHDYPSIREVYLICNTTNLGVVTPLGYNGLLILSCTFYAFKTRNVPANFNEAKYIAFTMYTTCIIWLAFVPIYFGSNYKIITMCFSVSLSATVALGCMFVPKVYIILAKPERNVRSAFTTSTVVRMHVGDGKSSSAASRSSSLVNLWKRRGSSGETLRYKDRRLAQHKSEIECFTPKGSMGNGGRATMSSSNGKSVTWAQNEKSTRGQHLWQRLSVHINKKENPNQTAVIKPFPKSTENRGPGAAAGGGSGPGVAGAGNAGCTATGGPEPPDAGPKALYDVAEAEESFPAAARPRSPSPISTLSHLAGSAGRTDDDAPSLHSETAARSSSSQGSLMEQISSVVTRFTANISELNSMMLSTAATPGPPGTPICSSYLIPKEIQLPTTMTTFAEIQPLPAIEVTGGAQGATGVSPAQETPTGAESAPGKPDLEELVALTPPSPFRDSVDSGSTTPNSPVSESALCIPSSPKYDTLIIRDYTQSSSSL

Chain of Metabotropic glutamate receptor 5 (Homo sapiens, UniProt P41594) (P41594 whole entry): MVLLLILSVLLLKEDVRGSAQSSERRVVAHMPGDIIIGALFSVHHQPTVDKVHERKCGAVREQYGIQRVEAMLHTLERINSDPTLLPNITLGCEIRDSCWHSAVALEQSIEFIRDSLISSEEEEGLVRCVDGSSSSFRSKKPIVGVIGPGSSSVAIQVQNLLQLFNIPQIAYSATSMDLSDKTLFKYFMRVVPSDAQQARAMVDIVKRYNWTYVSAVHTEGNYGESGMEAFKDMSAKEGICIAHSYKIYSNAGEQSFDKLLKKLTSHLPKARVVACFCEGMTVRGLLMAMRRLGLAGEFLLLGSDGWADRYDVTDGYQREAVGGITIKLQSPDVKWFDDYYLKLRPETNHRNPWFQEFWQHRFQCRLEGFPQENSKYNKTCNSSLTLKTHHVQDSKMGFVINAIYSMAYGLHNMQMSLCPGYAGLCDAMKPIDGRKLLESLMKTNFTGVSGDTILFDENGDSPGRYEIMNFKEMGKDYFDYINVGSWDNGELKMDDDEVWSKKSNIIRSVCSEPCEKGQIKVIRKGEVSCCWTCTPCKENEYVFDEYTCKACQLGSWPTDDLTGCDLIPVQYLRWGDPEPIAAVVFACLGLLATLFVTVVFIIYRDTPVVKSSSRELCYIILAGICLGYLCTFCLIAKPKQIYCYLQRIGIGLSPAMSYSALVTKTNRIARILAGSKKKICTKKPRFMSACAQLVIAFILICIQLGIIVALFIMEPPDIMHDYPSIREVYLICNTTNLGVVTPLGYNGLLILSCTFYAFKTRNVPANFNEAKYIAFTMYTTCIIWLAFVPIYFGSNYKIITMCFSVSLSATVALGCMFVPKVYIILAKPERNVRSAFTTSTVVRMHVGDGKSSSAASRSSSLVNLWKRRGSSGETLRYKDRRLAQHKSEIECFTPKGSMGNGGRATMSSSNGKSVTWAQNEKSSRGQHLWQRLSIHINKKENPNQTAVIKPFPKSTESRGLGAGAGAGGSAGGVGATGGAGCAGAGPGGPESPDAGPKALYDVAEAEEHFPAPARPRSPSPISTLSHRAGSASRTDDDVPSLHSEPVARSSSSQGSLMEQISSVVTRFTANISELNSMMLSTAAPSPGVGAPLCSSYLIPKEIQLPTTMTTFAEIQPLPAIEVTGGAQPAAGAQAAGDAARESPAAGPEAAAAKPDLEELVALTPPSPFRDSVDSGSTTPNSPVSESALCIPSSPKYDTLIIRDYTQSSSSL

| SMILES | Ki [1] | Ki [2] |
| --- | --- | --- |
| Cc1ccc(O)c(N=Nc2ccccc2)n1 [CAS_5218788] | 357 nM and 328 nM and 1100 nM | 486 nM and 346 nM |
| Cc1cccc(C=Cc2ccccc2)n1 [CAS_5311432] | 334 nM and 219 nM and 800 nM | 423 nM and 243 nM |
| N[C@@H](Cn1oc(=O)[nH]c1=O)C(=O)O [NSC_40539] | > 10000 nM | > 10000 nM |
| Cn1cc(O)nc1NC(=O)Nc1cccc(Cl)c1 [NSC_216215] | 40.8 nM and 53 nM and 58 nM | 56.3 nM and 50.8 nM |
